The values that follow are results of earlier work, collected in patent publication US20020146399A1, “Sorbic acid product comprising probiotics as addition to feedstuffs in agricultural livestock rearing” (priority 2001, published 2002).

Each structure is given as a SMILES string.

For data set [1] the following is noted: extensive data and decades of use in human food and animal feeds.

Turning to `C/C=C/C=C/C(=O)O` [Sorbic acid, trans,trans-2,4-hexadienoic acid], the “solubility in cold water” value is reported as “dissolves only slightly”. Besides, the toxicity result in data set [1] is listed as “virtually nontoxic”.
